Source: the supplement of paper PMC11061612

What was measured:
Test in all cases: Bliss excess, mean over the matrix (fraction); higher = more synergy
NB1 (Neuroblastoma) = tested on: NB1 (Neuroblastoma)
How it was run: (§1)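 After 24 hours at 37°C and 5% CO2 in 1536-well plates, cells in DMEM/F12 or RPMI plus 10% FBS received two-drug dose matrices for 72 hours. Viability came from CellTiter-Glo 2.0 luminescence and was scaled as inhibition, anchored at 0 by vehicle wells and at 1 by blank wells. Combination Emax is taken as the second-highest inhibition in the matrix, and Bliss excess as the observed combination effect less EA + EB − EA·EB, with EA and EB the single-agent effects.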

[1] = tested on: CPC-N (Small Cell Lung Carcinoma)
How it was run: as §1

[2] = tested on: OAW-28 (Ovarian Carcinoma)
How it was run: as §1

T47D (Breast Carcinoma) = tested on: T47D (Breast Carcinoma)
How it was run: as §1

[3] = tested on: C-33-A (Cervical Carcinoma)
How it was run: as §1

[4] = tested on: P32-ISH (Burkitt's Lymphoma)
How it was run: as §1

NCI-H226 (Mesothelioma) = tested on: NCI-H226 (Mesothelioma)
How it was run: as §1

[5] = tested on: HT-1080 (Other Solid Carcinomas)
How it was run: as §1

[6] = tested on: MM1S (Plasma Cell Myeloma)
How it was run: as §1

[7] = tested on: DBTRG-05MG (Glioblastoma)
How it was run: as §1

[8] = tested on: MOLP-8 (Plasma Cell Myeloma)
How it was run: as §1

[9] = tested on: PA-TU-8988T (Pancreatic Carcinoma)
How it was run: as §1

[10] = tested on: OVCAR-3 (Ovarian Carcinoma)
How it was run: as §1

ES6 (Ewing's Sarcoma) = tested on: ES6 (Ewing's Sarcoma)
How it was run: as §1

[11] = tested on: LS-1034 (Colorectal Carcinoma)
How it was run: as §1

[12] = tested on: NCI-H1876 (Small Cell Lung Carcinoma)
How it was run: as §1

GAK (Melanoma) = tested on: GAK (Melanoma)
How it was run: as §1

[13] = tested on: COR-L88 (Small Cell Lung Carcinoma)
How it was run: as §1

SK-N-SH (Neuroblastoma) = tested on: SK-N-SH (Neuroblastoma)
How it was run: as §1

[14] = tested on: P30-OHK (B-Lymphoblastic Leukemia)
How it was run: as §1

SMILES	Bliss excess (NB1 (Neuroblastoma))	Bliss excess [1]	Bliss excess [2]	Bliss excess (T47D (Breast Carcinoma))	Bliss excess [3]	Bliss excess [4]	Bliss excess (NCI-H226 (Mesothelioma))	Bliss excess [5]	Bliss excess [6]	Bliss excess [7]	Bliss excess [8]	Bliss excess [9]	Bliss excess [10]	Bliss excess (ES6 (Ewing's Sarcoma))	Bliss excess [11]	Bliss excess [12]	Bliss excess (GAK (Melanoma))	Bliss excess [13]	Bliss excess (SK-N-SH (Neuroblastoma))	Bliss excess [14]
CN(CCO)CC[C@H](CSc1ccccc1)Nc1ccc(S(=O)(=O)NC(=O)c2ccc(N3CCC([C@@H](O)c4ccccc4-c4ccc(Cl)cc4)CC3)cc2)cc1S(=O)(=O)C(F)(F)F [AZD4320] + C1CN(CCC1(C(=O)N[C@@H](CCO)C2=CC=C(C=C2)Cl)N)C3=NC=NC4=C3C=CN4 [Capivasertib] (first compound max 1 µM, 7x7, partner max 3 µM)	-0.0031	-0.0158	-0.0345	-0.0554	-0.0302	0.001	-0.0589	-0.0794	-0.0076	-0.047	-0.025	-0.0315	-0.0393	-0.0522	-0.0089	-0.0593	-0.064	0.0065	-0.0363	0.0169
CN(CCO)CC[C@H](CSc1ccccc1)Nc1ccc(S(=O)(=O)NC(=O)c2ccc(N3CCC([C@@H](O)c4ccccc4-c4ccc(Cl)cc4)CC3)cc2)cc1S(=O)(=O)C(F)(F)F [AZD4320] + C=CCn1c(=O)c2cnc(Nc3ccc(N4CCN(C)CC4)cc3)nc2n1-c1cccc(C(C)(C)O)n1 [AZD1775] (first compound max 1 µM, partner max 1 µM)	0.0014	0.0249	0.0652	-0.0509	-0.0246	0.107	-0.025	-0.0354	0.0981	0.0555	0.0782	0.0011	0.0007	0.0586	0.0344	0.0833	-0.0536	0.0578	-0.0141	0.141
CN(CCO)CC[C@H](CSc1ccccc1)Nc1ccc(S(=O)(=O)NC(=O)c2ccc(N3CCC([C@@H](O)c4ccccc4-c4ccc(Cl)cc4)CC3)cc2)cc1S(=O)(=O)C(F)(F)F [AZD4320] + CCN(CCO)CCCOc1ccc2c(Nc3cc(CC(=O)Nc4cccc(F)c4)[nH]n3)ncnc2c1 [AZD2811] (first compound max 1 µM, 7x7, partner max 1 µM)	0.0994	0.0092	0.0773	-0.0174	-0.0283	-0.0231	-0.0238	-0.0046	0.118	0.0363	0.0283	0.0239	-0.005	-0.0229	-0.0337	0.0935	-0.0032	0.0591	-0.143	0.045
CN(CCO)CC[C@H](CSc1ccccc1)Nc1ccc(S(=O)(=O)NC(=O)c2ccc(N3CCC([C@@H](O)c4ccccc4-c4ccc(Cl)cc4)CC3)cc2)cc1S(=O)(=O)C(F)(F)F [AZD4320] + CN(C)CCCOc1ccc(-c2ccc3ncc4c(c3c2)n(C2CCOCC2)c(=O)n4C)cn1 [AZD0156] (first compound max 1 µM, 7x7, partner max 1 µM)	-0.0202	-0.0391	-0.0218	-0.0056	-0.0302	0.0018	-0.0589	-0.0895	0.0753	-0.0497	0.0233	-0.005	-0.0407	-0.0314	-0.0386	0.0374	-0.0381	-0.0161	-0.0439	0.0275
CN(CCO)CC[C@H](CSc1ccccc1)Nc1ccc(S(=O)(=O)NC(=O)c2ccc(N3CCC([C@@H](O)c4ccccc4-c4ccc(Cl)cc4)CC3)cc2)cc1S(=O)(=O)C(F)(F)F [AZD4320] + C[C@@H]1COCCN1C2=NC(=NC(=C2)C3(CC3)[S@](=N)(=O)C)C4=C5C=CNC5=NC=C4 [AZD6738] (first compound max 1 µM, 7x7, partner max 10 µM)	-0.0023	0.0146	0.0382	-0.0566	-0.0158	-0.0092	-0.0819	0.0171	-0.0008	-0.0221	0.0086	-0.0006	-0.0231	0.015	-0.037	0.0189	0.0029	0.0079	-0.0586	0.0653
CN(CCO)CC[C@H](CSc1ccccc1)Nc1ccc(S(=O)(=O)NC(=O)c2ccc(N3CCC([C@@H](O)c4ccccc4-c4ccc(Cl)cc4)CC3)cc2)cc1S(=O)(=O)C(F)(F)F [AZD4320] + C[C@@H](Nc1cc(F)cc(F)c1)c1cc(C(=O)N(C)C)cc2c(=O)cc(N3CCOCC3)oc12 [AZD8186] (first compound max 1 µM, 7x7, partner max 3 µM)	-0.0033	0.0273	0.0055	-0.0242	-0.0542	0.0526	-0.015	-0.0232	0.0538	0.02	0.0576	-0.005	-0.0135	0.0029	-0.0026	0.0682	-0.0727	0.008	-0.071	0.0647
CN(CCO)CC[C@H](CSc1ccccc1)Nc1ccc(S(=O)(=O)NC(=O)c2ccc(N3CCC([C@@H](O)c4ccccc4-c4ccc(Cl)cc4)CC3)cc2)cc1S(=O)(=O)C(F)(F)F [AZD4320] + Cc1cc2ncnn2cc1Nc1ncc2c(n1)n(C1CCOCC1)c(=O)n2C [AZD7648] (first compound max 1 µM, 7x7, partner max 10 µM)	-0.0148	0.0364	-0.0348	-0.0255	-0.0164	0.0076	-0.0674	-0.0757	0.0657	-0.0015	-0.0125	-0.043	-0.0521	-0.0494	-0.0403	0.0162	0.0066	0.0052	0.0283	0.0216
CN(CCO)CC[C@H](CSc1ccccc1)Nc1ccc(S(=O)(=O)NC(=O)c2ccc(N3CCC([C@@H](O)c4ccccc4-c4ccc(Cl)cc4)CC3)cc2)cc1S(=O)(=O)C(F)(F)F [AZD4320] + Cn1cnc2c(F)c(Nc3ccc(Br)cc3Cl)c(C(=O)NOCCO)cc21 [Selumetinib] (first compound max 1 µM, 7x7, partner max 3 µM)	0.0308	-0.0185	0.0927	0.0231	0.0597	0.044	-0.0248	-0.0965	0.0799	0.0074	0.0614	0.0561	0.0276	-0.0326	-0.0454	0.0752	0.0028	0.121	0.0457	0.0291
COc1nnc2ccc(N3CCC(c4ccc(OCCN5CCN(C)C(=O)[C@H]5C)cc4)CC3)nn12 [AZD5153] + C=CCn1c(=O)c2cnc(Nc3ccc(N4CCN(C)CC4)cc3)nc2n1-c1cccc(C(C)(C)O)n1 [AZD1775] (first compound max 1 µM, partner max 1 µM)	-0.0461	-0.0862	-0.0382	-0.0262	-0.0546	-0.0649	-0.0349	-0.0362	-0.0412	-0.0053	-0.0204	-0.0738	0.0107	-0.0553	-0.0549	0.0224	-0.158	-0.0249	-0.0602	0.0298
COc1nnc2ccc(N3CCC(c4ccc(OCCN5CCN(C)C(=O)[C@H]5C)cc4)CC3)nn12 [AZD5153] + CC1(C)CCC(CN2CCN(c3ccc(C(=O)NS(=O)(=O)c4ccc(NCC5CCOCC5)c([N+](=O)[O-])c4)c(Oc4cnc5[nH]ccc5c4)c3)CC2)=C(c2ccc(Cl)cc2)C1 [Venetoclax] (first compound max 1 µM, 7x7, partner max 1 µM)	-0.0863	0.0046	-0.0949	-0.0713	-0.0107	-0.0067	-0.0192	-0.0216	-0.0394	-0.0832	0.0065	-0.0254	-0.0157	-0.0327	-0.011	0.0029	-0.0172	-0.0179	0.0011	0.102
COc1nnc2ccc(N3CCC(c4ccc(OCCN5CCN(C)C(=O)[C@H]5C)cc4)CC3)nn12 [AZD5153] + CCN(CCO)CCCOc1ccc2c(Nc3cc(CC(=O)Nc4cccc(F)c4)[nH]n3)ncnc2c1 [AZD2811] (first compound max 1 µM, 7x7, partner max 1 µM)	-0.0071	-0.0601	-0.0115	-0.0182	0.0198	-0.0959	-0.0697	0.0036	0.106	-0.0036	0.0011	0.0086	-0.0394	-0.0476	-0.046	0.0183	-0.0273	-0.0231	-0.0658	-0.0428
COc1nnc2ccc(N3CCC(c4ccc(OCCN5CCN(C)C(=O)[C@H]5C)cc4)CC3)nn12 [AZD5153] + C[C@@H]1COCCN1C2=NC(=NC(=C2)C3(CC3)[S@](=N)(=O)C)C4=C5C=CNC5=NC=C4 [AZD6738] (first compound max 1 µM, 7x7, partner max 10 µM)	0.0095	-0.0692	0.11	0.0796	0.0515	-0.0039	0.0038	-0.0255	0.0719	0.0213	-0.0211	0.0531	0.0931	0.0339	-0.0132	0.089	-0.0005	-0.0201	-0.0611	-0.0012
COc1nnc2ccc(N3CCC(c4ccc(OCCN5CCN(C)C(=O)[C@H]5C)cc4)CC3)nn12 [AZD5153] + Cc1c2c(nn1C)CSCc1cc(n(C)n1)CSc1cc(c3ccccc3c1)OCCCc1c(C(=O)O)n(C)c3c-2c(Cl)ccc13 [AZD5991] (first compound max 1 µM, 7x7, partner max 1 µM)	-0.0211	0.0163	0.0515	0.0003	0.0124	-0.0108	-0.0209	-0.0668	0.15	-0.0296	-0.0051	0.005	0.0003	-0.0033	-0.0569	0.157	-0.0183	0.0848	-0.0334	-0.0042
